# Reference: ChEMBL document CHEMBL1201862, “PubChem BioAssay data set” (2004)
# Activity calls are given as the source filed them.
# How the values were obtained:
# Insulin-degrading enzyme [1] = molecular target: T1, Insulin-degrading enzyme (Homo sapiens, UniProt P14735); experiment: activators of recombinant IDE enzyme, dose response, counter-screen for IDE activator project, biochemical, fluorescence polarization (AID 588681)
# T1 sequence (P14735 whole entry): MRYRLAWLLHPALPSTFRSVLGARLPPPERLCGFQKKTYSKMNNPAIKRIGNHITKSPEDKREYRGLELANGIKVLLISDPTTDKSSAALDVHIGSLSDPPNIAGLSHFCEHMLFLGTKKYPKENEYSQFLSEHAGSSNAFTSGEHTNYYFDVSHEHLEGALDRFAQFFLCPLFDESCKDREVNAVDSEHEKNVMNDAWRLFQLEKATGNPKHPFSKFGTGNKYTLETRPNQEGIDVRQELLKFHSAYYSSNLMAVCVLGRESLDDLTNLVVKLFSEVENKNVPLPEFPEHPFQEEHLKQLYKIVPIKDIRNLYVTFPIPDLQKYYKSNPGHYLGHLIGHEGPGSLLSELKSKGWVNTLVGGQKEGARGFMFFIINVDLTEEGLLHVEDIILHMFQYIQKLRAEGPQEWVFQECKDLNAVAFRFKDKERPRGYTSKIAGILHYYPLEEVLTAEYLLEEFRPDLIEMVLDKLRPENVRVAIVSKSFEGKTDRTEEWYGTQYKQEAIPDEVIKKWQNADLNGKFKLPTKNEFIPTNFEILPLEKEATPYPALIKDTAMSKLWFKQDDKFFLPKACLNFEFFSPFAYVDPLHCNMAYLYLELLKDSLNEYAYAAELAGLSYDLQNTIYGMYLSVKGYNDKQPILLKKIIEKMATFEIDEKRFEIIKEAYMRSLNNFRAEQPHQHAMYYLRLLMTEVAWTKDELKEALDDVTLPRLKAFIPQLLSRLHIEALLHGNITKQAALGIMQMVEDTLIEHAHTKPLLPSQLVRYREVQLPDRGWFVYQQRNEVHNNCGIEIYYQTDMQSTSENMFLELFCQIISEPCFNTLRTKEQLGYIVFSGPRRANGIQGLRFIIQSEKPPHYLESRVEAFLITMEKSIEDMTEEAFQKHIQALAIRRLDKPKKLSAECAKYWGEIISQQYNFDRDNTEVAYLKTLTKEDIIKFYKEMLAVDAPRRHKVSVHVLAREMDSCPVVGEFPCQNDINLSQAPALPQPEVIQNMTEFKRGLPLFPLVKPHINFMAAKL
# Insulin-degrading enzyme [2] = molecular target: T1, Insulin-degrading enzyme; experiment: activators of endogenous IDE in HEK cells, dose response, cell-based, fluorescence polarization (AID 588439); type: functional
# HEK293 [3] = experiment: HEK cell cytotoxicity by LDH release, dose response, cytotoxicity control for IDE activator project, fluorescence, HEK cells (AID 588440); type: functional, cell-based; details: Homo sapiens;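 further: cytotoxicity by LDH release measuring loss of membrane integrity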
# HEK293 [4] = experiment: optical interference in Abeta FP readout, dose response, artefact control for IDE activator project, biochemical, fluorescence polarization (AID 588442); type: functional, cell-based; details: Homo sapiens
# [5] = molecular target: T2, DNA repair protein RAD52 homolog (Homo sapiens, UniProt P43351); type: functional, biochemical
# T2 sequence (P43351 whole entry): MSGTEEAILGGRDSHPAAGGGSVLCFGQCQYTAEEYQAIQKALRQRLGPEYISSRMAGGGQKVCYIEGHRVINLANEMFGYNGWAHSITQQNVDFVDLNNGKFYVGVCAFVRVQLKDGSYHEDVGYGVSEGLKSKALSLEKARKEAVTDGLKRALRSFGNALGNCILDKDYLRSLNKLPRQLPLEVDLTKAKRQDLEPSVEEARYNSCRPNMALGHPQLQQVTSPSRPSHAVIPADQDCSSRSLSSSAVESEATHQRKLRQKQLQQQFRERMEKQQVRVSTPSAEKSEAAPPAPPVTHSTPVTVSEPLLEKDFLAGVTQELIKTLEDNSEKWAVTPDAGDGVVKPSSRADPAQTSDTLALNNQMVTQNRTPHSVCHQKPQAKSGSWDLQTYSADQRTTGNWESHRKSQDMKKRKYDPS
# INS1 = experiment: inhibitors of cytokine-induced nitrite release, dose response, cell-based, Griess absorbance, INS-1E, dry powder, set 2 (AID 488868); type: functional; details: Rattus norvegicus
# Erythrocyte = experiment: FACS-based assay to assess parasite growth inhibition 96 hr Measured in Cell-Based System Using Flow Cytometry - 2126-05_Inhibitor_Dose_DryPowder_Activity. [Related pubchem assays (depositor defined):AID488774]; type: functional; details: Homo sapiens
# [6] = FACS-based assay to assess parasite growth inhibition 48 hr Measured in Cell-Based System Using Flow Cytometry - 2126-03_Inhibitor_Dose_DryPowder_Activity. [Related pubchem assays (depositor defined):AID488774]; type: functional; details: Homo sapiens
# [7] = A cell-based HTS for delayed death inhibitors of the malarial parasite plastid Measured in Microorganism System Using Plate Reader - 2126-02_Inhibitor_Dose_DryPowder_Activity.; type: functional, organism-based
# [8] = A cell-based HTS for delayed death inhibitors of the malarial parasite plastid Measured in Microorganism System Using Plate Reader - 2126-01_Inhibitor_Dose_DryPowder_Activity.; type: functional, organism-based
# [9] = ADAM10 inhibitors, peptide cleavage, dose response, biochemical, QFRET (AID 743254);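 further: ADAM10 enzyme with the DM2 quenched FRET peptide as substrate; EDANS fluorescence gain as the protease cuts the substrate; inhibitor potency against ADAM10 proteolytic activity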
# [10] = molecular target: Disintegrin and metalloproteinase domain-containing protein 17 (Homo sapiens, UniProt P78536); experiment: ADAM17 protease inhibitors, dose response, counter-screen for ADAM10 exosite inhibitor project, biochemical, quenched FRET substrate (AID 743253)
# Sequence of Disintegrin and metalloproteinase domain-containing protein 17 (P78536 whole entry, the tested form may be a part): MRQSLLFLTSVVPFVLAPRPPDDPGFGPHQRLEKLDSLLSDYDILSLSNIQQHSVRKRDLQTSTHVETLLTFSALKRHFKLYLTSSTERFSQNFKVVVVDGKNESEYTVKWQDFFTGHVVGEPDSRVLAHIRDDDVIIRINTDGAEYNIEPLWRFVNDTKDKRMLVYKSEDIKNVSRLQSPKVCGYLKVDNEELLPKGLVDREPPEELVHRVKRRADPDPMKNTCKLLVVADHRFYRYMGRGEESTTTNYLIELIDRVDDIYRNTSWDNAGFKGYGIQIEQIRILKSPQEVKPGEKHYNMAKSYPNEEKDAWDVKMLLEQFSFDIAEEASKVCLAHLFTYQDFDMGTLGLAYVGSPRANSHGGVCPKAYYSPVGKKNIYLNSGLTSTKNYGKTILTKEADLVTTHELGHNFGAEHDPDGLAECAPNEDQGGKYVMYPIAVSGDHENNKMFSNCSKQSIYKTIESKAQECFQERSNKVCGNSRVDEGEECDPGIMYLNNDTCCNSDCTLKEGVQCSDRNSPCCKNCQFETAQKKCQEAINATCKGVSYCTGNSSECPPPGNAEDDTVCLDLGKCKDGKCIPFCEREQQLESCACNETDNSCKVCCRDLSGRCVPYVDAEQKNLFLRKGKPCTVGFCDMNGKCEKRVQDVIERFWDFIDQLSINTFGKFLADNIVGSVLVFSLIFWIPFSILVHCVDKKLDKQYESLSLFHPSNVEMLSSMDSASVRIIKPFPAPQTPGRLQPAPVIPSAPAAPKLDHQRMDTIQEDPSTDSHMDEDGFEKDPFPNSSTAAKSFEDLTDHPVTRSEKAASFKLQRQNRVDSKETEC
# [11] = molecular target: T3, Sentrin-specific protease 8 (Homo sapiens, UniProt Q96LD8); experiment: SENP8 protease inhibitors, SAR follow-up, biochemical, luminescence (AID 504501); type: functional
# T3 sequence (Q96LD8 whole entry): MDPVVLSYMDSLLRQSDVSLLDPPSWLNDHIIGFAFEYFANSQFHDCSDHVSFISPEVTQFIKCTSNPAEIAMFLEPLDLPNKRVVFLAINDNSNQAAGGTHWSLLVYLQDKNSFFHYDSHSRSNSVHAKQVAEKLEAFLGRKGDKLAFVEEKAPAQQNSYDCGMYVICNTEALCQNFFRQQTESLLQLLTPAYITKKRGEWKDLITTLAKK
# Caspase-3 [12] = molecular target: T4, Caspase-3 (Homo sapiens, UniProt P42574); experiment: caspase-3 inhibitors as off-family protease, SAR follow-up, selectivity assay for SENP protease inhibitor project, biochemical, luminescence, set 2 (AID 588599); type: functional
# T4 sequence (P42574 whole entry): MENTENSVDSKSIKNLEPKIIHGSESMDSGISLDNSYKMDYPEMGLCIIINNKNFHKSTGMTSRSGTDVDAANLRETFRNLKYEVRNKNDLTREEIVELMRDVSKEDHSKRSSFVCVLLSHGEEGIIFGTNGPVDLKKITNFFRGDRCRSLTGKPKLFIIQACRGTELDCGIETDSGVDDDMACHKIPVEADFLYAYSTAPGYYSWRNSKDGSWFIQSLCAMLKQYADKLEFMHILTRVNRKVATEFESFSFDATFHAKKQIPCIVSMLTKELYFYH
# [13] = molecular target: T3, Sentrin-specific protease 8; experiment: SENP8 protease inhibitors, SAR follow-up, biochemical, luminescence, set 2 (AID 588601); type: functional
# Caspase-3 [14] = molecular target: T4, Caspase-3; experiment: SAR Analysis of small molecule inhibitors of Sentrin-specific proteases (SENPs) using a Caspase-3 Selectivity assay. [Related pubchem assays (depositor defined):AID2540, AID2599, AID434973, AID489001]; type: functional
# [15] = molecular target: T5, Sentrin-specific protease 7 (Homo sapiens, UniProt Q9BQF6); experiment: SENP7 protease inhibitors, SAR follow-up, biochemical, luminescence, set 2 (AID 588600); type: functional
# T5 sequence (Q9BQF6 whole entry): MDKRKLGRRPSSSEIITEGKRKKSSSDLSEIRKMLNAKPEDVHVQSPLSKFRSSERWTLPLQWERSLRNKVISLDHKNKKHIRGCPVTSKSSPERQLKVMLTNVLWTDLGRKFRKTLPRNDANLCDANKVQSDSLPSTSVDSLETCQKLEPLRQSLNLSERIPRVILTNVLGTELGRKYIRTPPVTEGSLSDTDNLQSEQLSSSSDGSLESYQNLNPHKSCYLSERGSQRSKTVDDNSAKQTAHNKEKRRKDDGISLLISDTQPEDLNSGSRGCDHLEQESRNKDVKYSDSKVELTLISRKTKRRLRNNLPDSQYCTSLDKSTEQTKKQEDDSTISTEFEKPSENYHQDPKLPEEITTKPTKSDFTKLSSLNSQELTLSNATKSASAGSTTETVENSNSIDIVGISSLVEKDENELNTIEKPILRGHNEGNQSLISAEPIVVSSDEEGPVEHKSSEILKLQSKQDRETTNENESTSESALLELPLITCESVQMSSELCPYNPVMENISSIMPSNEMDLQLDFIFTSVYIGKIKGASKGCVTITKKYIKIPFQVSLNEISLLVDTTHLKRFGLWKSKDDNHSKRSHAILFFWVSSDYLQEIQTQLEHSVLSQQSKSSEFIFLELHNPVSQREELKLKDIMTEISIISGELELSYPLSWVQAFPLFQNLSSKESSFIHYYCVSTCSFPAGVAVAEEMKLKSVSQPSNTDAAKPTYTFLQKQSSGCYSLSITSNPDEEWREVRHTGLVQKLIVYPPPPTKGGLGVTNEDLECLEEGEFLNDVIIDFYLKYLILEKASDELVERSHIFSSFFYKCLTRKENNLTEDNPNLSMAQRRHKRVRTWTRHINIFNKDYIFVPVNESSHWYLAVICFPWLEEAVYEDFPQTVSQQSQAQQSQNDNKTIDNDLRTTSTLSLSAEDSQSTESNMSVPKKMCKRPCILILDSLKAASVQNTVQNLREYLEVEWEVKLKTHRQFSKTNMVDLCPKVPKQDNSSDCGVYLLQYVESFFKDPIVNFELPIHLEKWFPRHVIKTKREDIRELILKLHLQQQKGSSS
# [16] = molecular target: T6, Sentrin-specific protease 6 (Homo sapiens, UniProt Q9GZR1); experiment: SAR Analysis of small molecule inhibitors of Sentrin-specific protease 6 (SENP6) using a Luminescent assay. [Related pubchem assays (depositor defined):AID2582, AID2599]; type: functional
# T6 sequence (Q9GZR1 whole entry): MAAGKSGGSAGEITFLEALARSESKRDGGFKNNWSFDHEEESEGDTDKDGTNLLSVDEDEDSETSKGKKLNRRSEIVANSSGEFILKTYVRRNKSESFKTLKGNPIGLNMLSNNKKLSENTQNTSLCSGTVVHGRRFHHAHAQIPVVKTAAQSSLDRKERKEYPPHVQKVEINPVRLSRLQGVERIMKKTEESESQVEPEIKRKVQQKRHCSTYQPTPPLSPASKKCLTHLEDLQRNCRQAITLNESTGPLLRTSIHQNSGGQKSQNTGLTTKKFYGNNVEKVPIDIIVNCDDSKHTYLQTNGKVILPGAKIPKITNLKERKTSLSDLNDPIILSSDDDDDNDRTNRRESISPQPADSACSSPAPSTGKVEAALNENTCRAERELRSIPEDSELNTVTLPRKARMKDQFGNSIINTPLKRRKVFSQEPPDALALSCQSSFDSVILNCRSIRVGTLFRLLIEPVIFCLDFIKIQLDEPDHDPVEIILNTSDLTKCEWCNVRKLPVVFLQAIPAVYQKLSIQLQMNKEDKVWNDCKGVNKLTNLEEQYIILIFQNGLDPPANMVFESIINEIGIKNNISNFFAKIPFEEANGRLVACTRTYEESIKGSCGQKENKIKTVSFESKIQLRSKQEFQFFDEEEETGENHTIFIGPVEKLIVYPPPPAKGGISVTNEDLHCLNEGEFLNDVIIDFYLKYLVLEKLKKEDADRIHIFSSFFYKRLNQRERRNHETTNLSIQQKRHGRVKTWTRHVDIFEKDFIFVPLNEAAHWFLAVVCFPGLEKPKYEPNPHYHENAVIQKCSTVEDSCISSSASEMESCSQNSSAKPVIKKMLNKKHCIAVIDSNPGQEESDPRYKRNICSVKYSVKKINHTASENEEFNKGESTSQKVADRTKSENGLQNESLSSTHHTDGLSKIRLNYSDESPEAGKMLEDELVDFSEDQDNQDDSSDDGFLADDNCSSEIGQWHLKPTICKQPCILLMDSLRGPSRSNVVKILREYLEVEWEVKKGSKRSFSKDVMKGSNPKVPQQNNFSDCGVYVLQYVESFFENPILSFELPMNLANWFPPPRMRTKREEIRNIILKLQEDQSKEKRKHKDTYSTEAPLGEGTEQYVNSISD
# [17] = molecular target: T6, Sentrin-specific protease 6; experiment: SENP6 protease inhibitors, SAR follow-up, biochemical, luminescence, set 2 (AID 588598); type: functional
# [18] = molecular target: T5, Sentrin-specific protease 7; experiment: SENP7 protease inhibitors, SAR follow-up, biochemical, luminescence (AID 504497); type: functional
smiles,measurement,setting,value
O=c1c2c(-c3ccccc3)csc2nc2c3ccccc3c(NCCN3CCOCC3)nn12,EC50,Insulin-degrading enzyme [1],25.2 µM (inactive)
same,EC50,Insulin-degrading enzyme [2],> 54.7 µM (inactive)
same,IC50,HEK293 [3],10.6 µM (inactive)
same,EC50,HEK293 [4],> 55.9 µM (inactive)
same,AC50,[5],1.58 µM (active)
COc1ccc(S(=O)(=O)N(C)C[C@@H]2Oc3ccc(NC(=O)Nc4cccc5ccccc45)cc3C(=O)N([C@@H](C)CO)C[C@H]2C)cc1,AC50,INS1,43.8 µM (active)
C[C@@H]1CN([C@@H](C)COC(=O)C(C)(C)C)C(=O)c2cc(NC(=O)Nc3ccccc3)ccc2O[C@@H](C)CCCCO[C@H]1CN(C)S(=O)(=O)c1ccc(F)cc1,AC50,Erythrocyte,0.005 µM (active)
same,AC50,[6],0.00425 µM (active)
same,AC50,[7],0.00877 µM (active)
same,AC50,[8],0.00539 µM (active)
same,IC50,[9],> 69.5 µM (inactive)
same,IC50,[10],> 69.5 µM (inactive)
O=C(Nc1nc2ccccc2s1)c1sccc1Cl,IC50,[11],0.71 µM (active)
same,IC50,Caspase-3 [12],0.954 µM (active)
same,IC50,[13],1.22 µM (active)
same,IC50,Caspase-3 [14],0.54 µM (active)
same,IC50,[15],1.21 µM (active)
same,IC50,[16],0.75 µM (active)
same,IC50,[17],1.19 µM (active)
same,IC50,[18],0.89 µM (active)
